Molecular target: T1, human type 1 glycine transporter (GlyT1) (Homo sapiens, UniProt P48067)
T1 construct: T98G cells (glioma cells) expressing human type 1 glycine transporter (GlyT1) were used
T1 sequence (P48067 1-706): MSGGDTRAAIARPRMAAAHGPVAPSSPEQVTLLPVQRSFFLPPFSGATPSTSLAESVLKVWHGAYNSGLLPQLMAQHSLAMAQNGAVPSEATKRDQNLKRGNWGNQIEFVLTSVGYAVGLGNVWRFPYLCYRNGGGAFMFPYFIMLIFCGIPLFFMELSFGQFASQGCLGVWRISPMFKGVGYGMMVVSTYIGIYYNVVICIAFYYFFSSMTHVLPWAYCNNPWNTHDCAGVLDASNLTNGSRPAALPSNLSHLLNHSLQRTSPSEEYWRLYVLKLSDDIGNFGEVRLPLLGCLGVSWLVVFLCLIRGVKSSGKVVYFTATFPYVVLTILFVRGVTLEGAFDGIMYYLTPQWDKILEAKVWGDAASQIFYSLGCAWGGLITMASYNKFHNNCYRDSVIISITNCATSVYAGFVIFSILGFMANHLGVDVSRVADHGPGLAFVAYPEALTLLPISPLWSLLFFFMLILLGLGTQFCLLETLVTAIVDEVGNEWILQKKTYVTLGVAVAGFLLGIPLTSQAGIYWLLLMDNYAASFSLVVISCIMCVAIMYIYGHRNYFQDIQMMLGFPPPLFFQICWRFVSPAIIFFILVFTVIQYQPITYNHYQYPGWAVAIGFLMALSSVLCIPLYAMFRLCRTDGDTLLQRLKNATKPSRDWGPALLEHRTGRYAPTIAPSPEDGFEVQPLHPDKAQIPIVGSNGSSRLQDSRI
Assay: Glycine uptake inhibition experiment ([3H]glycine uptake)
Assay type: cell-based
Details: GlyT1
Experimental: Glycine Uptake Inhibition Experiment
A glycine uptake experiment was conducted in accordance with the method published in Neuron, 8, 927-935, 1992. In the experiment, T98G cells (glioma cells) expressing human type 1 glycine transporter (GlyT1) were used. The T98G cells were seeded in a 96-well plate at 2.0×10^4 cells/well and cultured overnight in a CO2 incubator. The test substance was dissolved in a 100% DMSO solution and then dissolved in a 10 mM HEPES buffer solution (pH 7.4) containing 150 mM sodium chloride, 1 mM calcium chloride, 5 mM potassium chloride, 1 mM magnesium chloride, 10 mM glucose and 0.2% bovine serum albumin. After removing the cell culture medium, the test substance was subjected to a 10-min pretreatment. Subsequently, the test substance and [^3H] glycine (final concentration: 250 nM) were added to the cells and reaction was performed at room temperature for 15 minutes. After the end of the reaction, the extracellular fluid was aspirated with a manifold to remove excess labeled glycine present outside the cells, and then the cells were lysed with a 0.5 M aqueous sodium hydroxide solution. The glycine content in the cells was determined by measuring the radioactivity in the cell lysate with a liquid scintillation counter. Glycine uptake in the presence of 10 μM ALX5407 was defined as non-specific uptake, and the value calculated by subtracting the amount of the non-specific uptake from the total uptake in the absence of 10 μM ALX5407 was defined as specific uptake. In addition, glycine uptake inhibitory activity (IC50 value) was calculated from an inhibition curve at the concentrations of each test substance ranging from 10^−9 to 10^−5 M. It should be noted that ALX5407 is an HCl salt of N-[(3R)-3-([1,1′-biphenyl]-4-yloxy)-3-(4-fluorophenyl)propyl]-N-methylglycine.

IC50 [nM] | SMILES
21 | O=C(NC(c1cccc(Cl)n1)C1(O)CCCC1)c1nccc(C(F)(F)F)c1Cl (stereo not shown) [Compound 383, 3-chloro-N-[(6-chloropyridin-2-yl)(1-hydroxycyclopentyl)methyl]-4-(trifluoromethyl)pyridine-2-carboxamide]
430 | O=C(NC(c1cccnc1Cl)[C@]1(O)CC[C@@H](F)CC1)c1cc(C(F)(F)F)ccc1Cl (single isomer, unassigned) [Compound 325, 2-chloro-N-[(2-chloropyridin-3-yl)(cis-4-fluoro-1-hydroxycyclohexyl)methyl]-5-(trifluoromethyl)benzamide]
670 | CCn1cc(-c2cccc(C(NC(=O)c3cccc(Cl)c3Cl)C3(O)CCC(F)(F)CC3)c2)cn1 (single isomer, unassigned) [Compound 145, 2,3-dichloro-N-{(4,4-difluoro-1-hydroxycyclohexyl)[3-(1-ethyl-1H-pyrazol-4-yl)phenyl]methyl}benzamide]
1400 | O=C(N[C@@H](c1cccc(Br)c1)C1(O)CCCC1)c1nccc(C(F)(F)F)c1-n1cccn1 [Compound 69, N-[(S)-(3-bromophenyl)(1-hydroxycyclopentyl)methyl]-3-(1H-pyrazol-1-yl)-4-(trifluoromethyl)pyridine-2-carboxamide]
330 | O=C(NC(c1cccnc1Cl)[C@]1(O)CC[C@@H](F)CC1)c1nccc(C(F)(F)F)c1Cl (single isomer, unassigned) [Compound 273, 3-chloro-N-[(2-chloropyridin-3-yl)(cis-4-fluoro-1-hydroxycyclohexyl)methyl]-4-(trifluoromethyl)pyridine-2-carboxamide]
6000 | O=C(NC(c1cccc(Cl)c1Cl)C1(O)CCCC1)c1nccc(C(F)(F)F)c1Cl (single isomer, unassigned) [Compound 116, 3-chloro-N-[(2,3-dichlorophenyl)(1-hydroxycyclopentyl)methyl]-4-(trifluoromethyl)pyridine-2-carboxamide]
550 | O=C(NC(c1cc(Cl)ccc1F)[C@]1(O)CC[C@@H](F)CC1)c1ccnc(C(F)(F)F)c1Cl (single isomer, unassigned) [Compound 376, 3-chloro-N-[(5-chloro-2-fluorophenyl)(cis-4-fluoro-1-hydroxycyclohexyl)methyl]-2-(trifluoromethyl)pyridine-4-carboxamide]
380 | O=C(NC(c1cccc(Cl)n1)C1(O)CCC(F)(F)CC1)c1ccnc(C(F)(F)F)c1Cl (single isomer, unassigned) [Compound 347, 3-chloro-N-[(6-chloropyridin-2-yl)(4,4-difluoro-1-hydroxycyclohexyl)methyl]-2-(trifluoromethyl)pyridine-4-carboxamide]
5700 | O=C(N[C@@H](c1cccc(Br)c1)C1(O)CCCC1)c1nccc(C(F)(F)F)c1-n1ccnn1 [Compound 71, N-[(S)-(3-bromophenyl)(1-hydroxycyclopentyl)methyl]-3-(1H-1,2,3-triazol-1-yl)-4-(trifluoromethyl)pyridine-2-carboxamide]
400 | N#Cc1cccc(C(NC(=O)c2cccc(C(F)(F)F)c2Cl)C2(O)CCCC2)c1 (stereo not shown) [Compound 8, 2-chloro-N-[(3-cyanophenyl)(1-hydroxycyclopentyl)methyl]-3-(trifluoromethyl)benzamide]
1000 | O=C(NC(c1cccc(F)c1Cl)[C@]1(O)CC[C@@H](F)CC1)c1cccc(F)c1Cl (single isomer, unassigned) [Compound 288, 2-chloro-N-[(2-chloro-3-fluorophenyl)(cis-4-fluoro-1-hydroxycyclohexyl)methyl]-3-fluorobenzamide]
590 | COC(=O)c1cccc(C(NC(=O)c2nccc(C(F)(F)F)c2Cl)C2(O)CCCC2)c1 (stereo not shown) [Compound 98, methyl 3-[({[3-chloro-4-(trifluoromethyl)pyridin-2-yl]carbonyl}amino)(1-hydroxycyclopentyl)methyl]benzoate]
400 | O=C(NC(c1cccc(-c2ccncc2)c1)C1(O)CCCC1)c1cccc(C(F)(F)F)c1Cl (stereo not shown) [Compound 4, 2-chloro-N-{(1-hydroxycyclopentyl)[3-(pyridin-4-yl)phenyl]methyl}-3-(trifluoromethyl)benzamide]
130 | O=C(NC(c1ccc(F)cc1Cl)C1(O)CCCC1)c1nccc(C(F)(F)F)c1Cl (stereo not shown) [Compound 95, 3-chloro-N-[(2-chloro-4-fluorophenyl)(1-hydroxycyclopentyl)methyl]-4-(trifluoromethyl)pyridine-2-carboxamide]
1100 | Cc1ccc(-n2nccn2)c(C(=O)NC(c2cccc(F)c2Cl)[C@]2(O)CC[C@@H](F)CC2)n1 (single isomer, unassigned) [Compound 283, N-[(2-chloro-3-fluorophenyl)(cis-4-fluoro-1-hydroxycyclohexyl)methyl]-6-methyl-3-(2H-1,2,3-triazol-2-yl)pyridine-2-carboxamide]
110 | O=C(NC(c1cccc(F)c1)C1(O)CCCC1)c1nccc(C(F)(F)F)c1Cl (stereo not shown) [Compound 40, 3-chloro-N-[(3-fluorophenyl)(1-hydroxycyclopentyl)methyl]-4-(trifluoromethyl)pyridine-2-carboxamide]
9.4 | O=C(NC(c1cccc(Cl)n1)C1(O)CCCCC1)c1nccc(C(F)(F)F)c1Cl (single isomer, unassigned) [Compound 384, 3-chloro-N-[(6-chloropyridin-2-yl)(1-hydroxycyclohexyl)methyl]-4-(trifluoromethyl)pyridine-2-carboxamide]
100 | O=C(NC(c1cccc(F)c1)C1(O)CCC(F)CC1)c1nccc(C(F)(F)F)c1Cl (single isomer, unassigned) [Compound 236, 3-chloro-N-[(cis-4-fluoro-1-hydroxycyclohexyl)(3-fluorophenyl)methyl]-4-(trifluoromethyl)pyridine-2-carboxamide]
360 | O=C(NC(c1cc(Cl)ccn1)C1(O)CCC(F)(F)CC1)c1ccnc(C(F)(F)F)c1Cl (single isomer, unassigned) [Compound 346, 3-chloro-N-[(4-chloropyridin-2-yl)(4,4-difluoro-1-hydroxycyclohexyl)methyl]-2-(trifluoromethyl)pyridine-4-carboxamide]
1500 | O=C(NC(c1cccc(F)c1Cl)[C@]1(O)CC[C@@H](F)CC1)c1cc(O)ccc1Cl (single isomer, unassigned) [Compound 297, 2-chloro-N-[(2-chloro-3-fluorophenyl)(cis-4-fluoro-1-hydroxycyclohexyl)methyl]-5-hydroxybenzamide]
65 | O=C(NC(c1cc(Cl)ccc1Cl)C1(O)CCCC1)c1nccc(C(F)(F)F)c1Cl (single isomer, unassigned) [Compound 114, 3-chloro-N-[(2,5-dichlorophenyl)(1-hydroxycyclopentyl)methyl]-4-(trifluoromethyl)pyridine-2-carboxamide]
1100 | O=C(NC(c1cccnc1Cl)[C@]1(O)CC[C@@H](F)CC1)c1nccc2ccccc12 (single isomer, unassigned) [Compound 326, N-[(2-chloropyridin-3-yl)(cis-4-fluoro-1-hydroxycyclohexyl)methyl]isoquinoline-1-carboxamide]
1600 | CN(C)C(=O)c1cccc(C(NC(=O)c2nccc(C(F)(F)F)c2Cl)C2(O)CCCC2)c1 (stereo not shown) [Compound 105, 3-chloro-N-{[3-(dimethylcarbamoyl)phenyl](1-hydroxycyclopentyl)methyl}-4-(trifluoromethyl)pyridine-2-carboxamide]
29 | O=C(NC(c1cccc(F)c1)C1(O)CCCCC1)c1nccc(C(F)(F)F)c1Cl (single isomer, unassigned) [Compound 67, 3-chloro-N-[(3-fluorophenyl)(1-hydroxycyclohexyl)methyl]-4-(trifluoromethyl)pyridine-2-carboxamide]
1000 | O=C(NC(c1cccc(F)c1Cl)[C@]1(O)CC[C@@H](F)CC1)c1cnnc2ccccc12 (single isomer, unassigned) [Compound 259, N-[(2-chloro-3-fluorophenyl)(cis-4-fluoro-1-hydroxycyclohexyl)methyl]cinnoline-4-carboxamide]
